Among the data in patent US20250019385A1, “SPIROCYCLIC ANNULATED 2-AMINO-3-CYANO THIOPHENES AND DERIVATIVES FOR THE TREATMENT OF CANCER” (Boehringer Ingelheim International GmbH, priority 2023, published 2025) are IC50 values, retold here.

The structures appear in SMILES notation.

Chain of KRAS (G12C)::SOS1 protein-protein interaction (P01116 other isoform, or with tags, fused parts or gaps G12C/C51S/C80L/C118S): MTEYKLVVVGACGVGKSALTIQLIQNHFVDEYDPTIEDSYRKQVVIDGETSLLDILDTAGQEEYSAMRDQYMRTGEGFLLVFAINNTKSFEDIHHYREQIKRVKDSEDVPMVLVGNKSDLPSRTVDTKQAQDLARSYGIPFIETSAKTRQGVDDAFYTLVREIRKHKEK

In the first experiment the target is KRAS (G12C)::SOS1 protein-protein interaction (Homo sapiens (Human), UniProt P01116, C118S/C51S/C80L/G12C). As to the kind of experiment: KRAS::SOS1 AlphaScreen binding assay (KRAS G12C). Particulars: GDP. From the text: This assay can be used to examine the potency with which compounds according to the invention binding to (mutated) KRAS inhibit the protein-protein interaction between SOS1 and (mutated) KRAS e.g. KRAS G12C, KRAS G12D. […] Low IC50 values in this assay setting are indicative of strong inhibition of protein-protein interaction between SOS1 and KRAS:
These assays measure the inhibitory effect of compounds on KRAS mutant protein-protein interactions using the Alpha Screen technology by Perkin Elmer.
The following (mutant) enzyme forms of KRAS and interacting proteins are used in these assays at the given concentrations:
KRAS (G12C) 1-169, N-terminal 6His-tag for purification, cleaved off, C-terminal avi-tag, biotinylated, mutations: C51S, C80L, C118S (in house); final assay concentration 7.5 nM and SOS1 564-1049, N-terminal 229 GST-tag, TEV cleavage site (Viva Biotech Ltd); final assay concentration 5 nM;
Test compounds dissolved in DMSO are dispensed onto assay plates (Proxiplate 384 PLUS, white, PerkinElmer; 6008289) using an Access Labcyte Workstation with the Labcyte Echo 55x. For the chosen highest assay concentration of 100 μM, 150 nL of compound solution are transferred from a 10 mM DMSO compound stock solution. A series of eleven fivefold dilutions per compound are transferred to the assay plate, compound dilutions are tested in duplicates. DMSO are added as backfill to a total volume of 150 nL.
The assays run on a fully automated robotic system in a darkened room below 100 Lux. To 150 nl of compound dilution 10 μl of a mix including KRAS mutant protein, SOS1 (final assay concentrations see above) and GDP nucleotide (Sigma G7127; final assay concentration 10 μM) in assay buffer (1×PBS, 0.1% BSA, 0.05% Tween 20) are added into columns 1-24.
After 30 minutes incubation time 5 μl of Alpha Screen bead mix in assay buffer are added into columns 1-23. Bead mix consists of AlphaLISA Glutathione Acceptor Beads (PerkinElmer, Cat No AL109) and AlphaScreen Streptavidin Donor Beads (PerkinElmer Cat No 6760002) in assay buffer at a final assay concentration of 10 μg/mL each.
Plates are kept at room temperature in a darkened incubator. After an additional 60 minutes incubation time the signal is measured in a PerkinElmer Envision HTS Multilabel Reader using the AlphaScreen specs from PerkinElmer.
Each plate contains up to 16 wells of a negative control depending on the dilution procedure (platewise or serial) (DMSO instead of test compound; with KRAS mutant::SOS1 GOP mix and bead mix; column 23) and 16 wells of a positive control (DMSO instead of test compound; with KRAS mutant::SOS1 GOP mix w/o bead mix; column 24).
As internal control known inhibitors of KRAS mutant::SOS1 interaction can be measured on each compound plate.
IC50 values are calculated and analyzed with Boehringer Ingelheim's MEGALAB C50 application using a 4 parametric logistic model.
Tables of example compounds disclosed herein contain IC50 values determined using the above assays (see Table 43).
On the technique in general: Bead proximity is the source of the signal in Alpha formats.
Turning to `CC(C)n1c(=O)n([C@@H]2CCOC2)c2nc(-c3onc4c3CCC[C@@]43CCCc4sc(N)c(C#N)c43)nc(O[C@@H](C)[C@@H]3CCCN3C)c21` [I-32], the IC50 amounted to 0.002 µM.

`C[C@H](Oc1nc(-c2onc3c2CCC[C@@]32CCCc3sc(N)c(C#N)c32)nc2c1n(C)c(=O)n2[C@@H]1CC2CCC1O2)[C@@H]1CCCN1C` (stereo partly drawn) [I-18] registered an IC50 of 0.004 µM.

For the molecule `C[C@H](Oc1nc(-c2onc3c2CCC[C@@]32CCCc3sc(N)c(C#N)c32)nc2c1n(C)c(=O)n2[C@@H]1CCOC1)[C@@H]1CCCN1C` [I-20], the IC50 turned out to be 0.001 µM.

In turn, `CO[C@H]1C[C@@H]([C@H](C)Oc2nc(-c3onc4c3CCC[C@@]43CCCc4sc(N)c(C#N)c43)nc3c2n(C)c(=O)n3[C@@H]2CCOC2)N(C)C1` [I-2] came in with an IC50 of 0.001 µM.

`Cc1nn([C@@H]2CCOC2)c2nc(-c3onc4c3CCC[C@@]43CCCc4sc(N)c(C#N)c43)nc(O[C@@H](C)[C@@H]3CCCN3C)c12` [I-42] gave an IC50 of 0.002 µM.

In the case of `C[C@H](Oc1nc(-c2onc3c2CCC[C@@]32CCCc3sc(N)c(C#N)c32)nc2c1n(C)c(=O)n2C1COC1)[C@@H]1CCCN1C` [I-24], the IC50 was 0.002 µM.

`CCn1c(=O)n([C@@H]2CCCOC2)c2nc(-c3onc4c3CCC[C@@]43CCCc4sc(N)c(C#N)c43)nc(OCC3(CN4CCCC4)CC3)c21` [I-35] displayed an IC50 of 0.002 µM.

In turn, `Cc1nc2c(O[C@@H](C)[C@@H]3CCCN3C)nc(-c3onc4c3CCC[C@@]43CCCc4sc(N)c(C#N)c43)nc2n1[C@@H]1CCOC1` [I-39] came in with an IC50 of 0.002 µM.

With `COCCn1c(=O)n([C@@H]2CCOC2)c2nc(-c3onc4c3CCC[C@@]43CCCc4sc(N)c(C#N)c43)nc(O[C@@H](C)[C@@H]3CCCN3C)c21` [I-1], the IC50 turned out to be 0.002 µM.

`C[C@H](Oc1nc(-c2onc3c2CCC[C@@]32CCCc3sc(N)c(C#N)c32)nc2c1n(C)c(=O)n2[C@@]12COC[C@@H]1C2)[C@@H]1CCCN1C` [I-29]: the IC50 worked out at 0.001 µM.

Molecule `C[C@H](Oc1nc(-c2onc3c2CCC[C@@]32CCCc3sc(N)c(C#N)c32)nc2c1N(C)C(=O)CN2[C@@H]1CCOC1)[C@@H]1CCCN1C` [I-37] showed an IC50 of 0.007 µM.

For the molecule `CO[C@@H]1C[C@@H]([C@H](C)Oc2nc(-c3onc4c3CCC[C@@]43CCCc4sc(N)c(C#N)c43)nc3c2n(C)c(=O)n3[C@@H]2CCCOC2)N(C)C1` [I-14], the IC50 stood at 0.002 µM.

In turn, `C[C@H](Oc1nc(-c2noc3c2CCC[C@@]32CCCc3sc(N)c(C#N)c32)nc2c1CN(c1ncccn1)[C@@]21CCOC1)[C@@H]1CCCN1C` [II-7b] came in with an IC50 of 0.003 µM.

`CO[C@H]1C[C@@H](n2c(=O)n(C)c3c(O[C@@H](C)[C@@H]4CCCN4C)nc(-c4onc5c4CCC[C@@]54CCCc5sc(N)c(C#N)c54)nc32)C1` [I-31] came in with an IC50 of 0.002 µM.

Another experiment deals with KRAS (G12V)::CRAF protein::protein interaction (Homo sapiens (Human), UniProt P01116, C118S/G12V). In words: KRAS TR-FRET assay (KRAS G12V::CRAF, GTP). It counts as binding.
Chain of KRAS (G12V)::CRAF protein::protein interaction (P01116 other isoform, or with tags, fused parts or gaps G12V/C118S): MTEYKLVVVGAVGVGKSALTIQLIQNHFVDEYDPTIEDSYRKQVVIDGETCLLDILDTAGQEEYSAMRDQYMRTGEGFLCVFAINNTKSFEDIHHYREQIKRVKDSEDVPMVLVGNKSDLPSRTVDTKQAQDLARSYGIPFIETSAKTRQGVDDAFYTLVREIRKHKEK
Settings: not given
On the procedure: (§1) This assay measures the inhibitory effect of compounds on KRAS::CRAF protein::protein interactions in the presence of GTP using Time-resolved fluorescence energy transfer (TR-FRET).
(§2) The following wildtype or mutant alleles of KRAS and CRAF protein have been used at the given concentrations:
KRAS (G12V) 1-169, C118S, N-terminal 6His-tag, C-terminal avi-tag (Boehringer Ingelheim in house protein prep); final assay concentration 15 nM.
(§3) CRAF Ras binding domain, GST-tag, TEV cleavage site (Boehringer Ingelheim in house protein prep); final assay concentration 15 nM.
(§4) Test compounds dissolved in DMSO were dispensed onto assay plates (Proxiplate 384 PLUS, white, PerkinElmer; 6008289) using an Access Labcyte Workstation with the Labcyte Echo 55x. For the chosen highest assay concentration of 100 μM, 150 nl of compound solution was transferred from a 10 mM DMSO compound stock solution. A series of eleven fivefold dilutions per compound was transferred to the assay plate, compound dilutions were tested in duplicates. DMSO was added as backfill to a total volume of 150 nl.
(§5) The assay runs on a fully automated robotic system. To 150 nl of compound dilution 15 μl of a mix including the respective KRAS allele, CRAF (e.g. KRAS (G12D)::CRAF; final assay concentrations see above), GTP nucleotide (Sigma G8877; final assay concentration 10 μM), Lance Eu—W1024 labeled Streptavidin (PerkinElmer, Cat No AD0063; final assay concentration 1.5 nM) and Anti-GST surelight APC (PerkinElmer, Cat No AD0059G; final assay concentration 30 nM) in assay buffer (1×PBS, 0.1% BSA, 0.05% Tween 20) are added into columns 1-23 and 15 μL of the solution without the respective KRAS allele were added to row 24.
(§6) Plates are kept at room temperature in a darkened incubator. After 60 minutes incubation time the signal is measured in a PerkinElmer Envision HTS Multilabel Reader using the TR-FRET LANCE Ultra specs from PerkinElmer.
(§7) Each plate contains 16 wells of a negative control (diluted DMSO instead of test compound; w respective KRAS allele; column 23) and 16 wells of a positive control (diluted DMSO instead of test compound; w/o respective KRAS allele; column 24).
(§8) IC50 values were calculated and analyzed with Boehringer Ingelheim's MEGALAB 50 application using a 4 parametric logistic model.
(§9) Tables of example compounds disclosed herein contain IC50 values determined using the above assays (see Table 44).
(In general: Time-resolved FRET reads energy transfer from a long-lived donor to a nearby acceptor.)
In turn, `CC(C)n1c(=O)n([C@@H]2CCOC2)c2nc(-c3onc4c3CCC[C@@]43CCCc4sc(N)c(C#N)c43)nc(O[C@@H](C)[C@@H]3CCCN3C)c21` [I-32] showed an IC50 of 0.191 µM.

On to `C[C@H](Oc1nc(-c2onc3c2CCC[C@@]32CCCc3sc(N)c(C#N)c32)nc2c1n(C)c(=O)n2[C@@H]1CCOC1)[C@@H]1CCCN1C` [I-20], for which half-maximal inhibition (IC50) was put at 0.021 µM.

In the case of `CO[C@H]1C[C@@H]([C@H](C)Oc2nc(-c3onc4c3CCC[C@@]43CCCc4sc(N)c(C#N)c43)nc3c2n(C)c(=O)n3[C@@H]2CCOC2)N(C)C1` [I-2], the IC50 came out at 0.18 µM.

`Cc1nn([C@@H]2CCOC2)c2nc(-c3onc4c3CCC[C@@]43CCCc4sc(N)c(C#N)c43)nc(O[C@@H](C)[C@@H]3CCCN3C)c12` [I-42]: half-maximal inhibition (IC50) was put at 0.115 µM.

On to `C[C@H](Oc1nc(-c2onc3c2CCC[C@@]32CCCc3sc(N)c(C#N)c32)nc2c1n(C)c(=O)n2C1COC1)[C@@H]1CCCN1C` [I-24], for which the IC50 was 0.153 µM.

For the molecule `Cc1nc2c(O[C@@H](C)[C@@H]3CCCN3C)nc(-c3onc4c3CCC[C@@]43CCCc4sc(N)c(C#N)c43)nc2n1[C@@H]1CCOC1` [I-39], the IC50 came to 0.062 µM.

Consider `COCCn1c(=O)n([C@@H]2CCOC2)c2nc(-c3onc4c3CCC[C@@]43CCCc4sc(N)c(C#N)c43)nc(O[C@@H](C)[C@@H]3CCCN3C)c21` [I-1], for which it took 0.107 µM to reach half-maximal inhibition (IC50).

`C[C@H](Oc1nc(-c2onc3c2CCC[C@@]32CCCc3sc(N)c(C#N)c32)nc2c1n(C)c(=O)n2[C@@]12COC[C@@H]1C2)[C@@H]1CCCN1C` [I-29]: 0.018 µM corresponded to half-maximal inhibition (IC50).

In a further experiment the target is KRAS (WT)::CRAF protein::protein interaction (Homo sapiens (Human), UniProt P01116). As to the kind of experiment: KRAS TR-FRET assay (KRAS WT::CRAF, GTP).
Chain of KRAS (WT)::CRAF protein::protein interaction (P01116 other isoform, or with tags, fused parts or gaps): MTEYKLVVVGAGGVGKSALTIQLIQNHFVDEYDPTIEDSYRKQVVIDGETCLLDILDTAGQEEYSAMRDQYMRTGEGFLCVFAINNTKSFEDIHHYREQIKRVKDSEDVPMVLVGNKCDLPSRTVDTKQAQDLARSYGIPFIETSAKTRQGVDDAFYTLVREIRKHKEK
Settings: not given
It counts as binding. The method, then: as §1, §2
KRAS (WT) 1-169, N-terminal 6His-tag, C-terminal avi-tag (Boehringer Ingelheim in house protein prep); final assay concentration 15 nM.
as §3, §4, §5, §6, §7, §8, §9
Regarding `CC(C)n1c(=O)n([C@@H]2CCOC2)c2nc(-c3onc4c3CCC[C@@]43CCCc4sc(N)c(C#N)c43)nc(O[C@@H](C)[C@@H]3CCCN3C)c21` [I-32], inhibition was half-maximal at 0.605 µM (IC50).

Consider `C[C@H](Oc1nc(-c2onc3c2CCC[C@@]32CCCc3sc(N)c(C#N)c32)nc2c1n(C)c(=O)n2[C@@H]1CCOC1)[C@@H]1CCCN1C` [I-20], for which 0.05 µM corresponded to half-maximal inhibition (IC50).

In turn, `CO[C@H]1C[C@@H]([C@H](C)Oc2nc(-c3onc4c3CCC[C@@]43CCCc4sc(N)c(C#N)c43)nc3c2n(C)c(=O)n3[C@@H]2CCOC2)N(C)C1` [I-2] gave an IC50 of 0.422 µM.

As to `Cc1nn([C@@H]2CCOC2)c2nc(-c3onc4c3CCC[C@@]43CCCc4sc(N)c(C#N)c43)nc(O[C@@H](C)[C@@H]3CCCN3C)c12` [I-42], the IC50 came to 0.273 µM.

Molecule `C[C@H](Oc1nc(-c2onc3c2CCC[C@@]32CCCc3sc(N)c(C#N)c32)nc2c1n(C)c(=O)n2C1COC1)[C@@H]1CCCN1C` [I-24] registered a concentration for half-maximal inhibition (IC50) of 0.749 µM.

`Cc1nc2c(O[C@@H](C)[C@@H]3CCCN3C)nc(-c3onc4c3CCC[C@@]43CCCc4sc(N)c(C#N)c43)nc2n1[C@@H]1CCOC1` [I-39] registered an IC50 of 0.052 µM.

For the molecule `COCCn1c(=O)n([C@@H]2CCOC2)c2nc(-c3onc4c3CCC[C@@]43CCCc4sc(N)c(C#N)c43)nc(O[C@@H](C)[C@@H]3CCCN3C)c21` [I-1], the IC50 came to 0.16 µM.

In the case of `C[C@H](Oc1nc(-c2onc3c2CCC[C@@]32CCCc3sc(N)c(C#N)c32)nc2c1n(C)c(=O)n2[C@@]12COC[C@@H]1C2)[C@@H]1CCCN1C` [I-29], 0.037 µM corresponded to half-maximal inhibition (IC50).

What is called IC50 is the concentration needed to halve the response being measured. The low end stands for greater potency in that assay, the high end for weaker potency in that assay.
